One data set has as its system MCF7. The data set can be described thus: NCI screening panel (SRB). It is filed as cell-based. To be noted: Homo sapiens, MCF7 (Breast), 48 h; for CC50: read-out: LC50 (the source's name).
The next data set has as its target T1, EPHA6 (Homo sapiens, UniProt Q9UF33).
T1 sequence (Q9UF33 23-1036): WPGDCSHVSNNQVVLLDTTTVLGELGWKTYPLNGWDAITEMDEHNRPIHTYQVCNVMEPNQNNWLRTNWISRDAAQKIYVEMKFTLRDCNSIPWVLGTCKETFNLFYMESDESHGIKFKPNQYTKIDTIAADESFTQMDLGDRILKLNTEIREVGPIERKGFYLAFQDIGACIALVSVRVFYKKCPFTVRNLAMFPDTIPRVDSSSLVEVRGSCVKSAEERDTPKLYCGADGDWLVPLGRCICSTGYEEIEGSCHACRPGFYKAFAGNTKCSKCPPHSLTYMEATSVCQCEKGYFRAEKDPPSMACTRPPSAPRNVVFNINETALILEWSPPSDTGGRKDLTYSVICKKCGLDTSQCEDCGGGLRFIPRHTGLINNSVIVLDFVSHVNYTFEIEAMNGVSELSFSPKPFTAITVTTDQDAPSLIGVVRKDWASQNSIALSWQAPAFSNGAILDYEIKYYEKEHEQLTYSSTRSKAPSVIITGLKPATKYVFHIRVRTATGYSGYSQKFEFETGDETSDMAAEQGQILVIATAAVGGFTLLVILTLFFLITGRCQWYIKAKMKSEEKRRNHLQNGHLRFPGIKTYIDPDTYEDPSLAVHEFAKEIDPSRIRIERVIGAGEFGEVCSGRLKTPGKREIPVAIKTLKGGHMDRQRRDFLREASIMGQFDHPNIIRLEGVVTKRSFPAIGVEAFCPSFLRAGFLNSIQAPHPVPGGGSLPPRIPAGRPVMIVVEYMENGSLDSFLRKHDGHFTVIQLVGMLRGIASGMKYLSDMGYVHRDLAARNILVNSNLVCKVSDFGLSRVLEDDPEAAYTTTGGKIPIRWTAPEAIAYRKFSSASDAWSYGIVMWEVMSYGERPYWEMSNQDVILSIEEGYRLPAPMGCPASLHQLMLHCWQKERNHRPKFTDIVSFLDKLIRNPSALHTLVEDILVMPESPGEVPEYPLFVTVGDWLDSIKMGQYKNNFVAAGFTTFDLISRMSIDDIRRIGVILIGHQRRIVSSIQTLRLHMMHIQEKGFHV
Briefly: Binding to EPHA (kinase competition binding, qPCR). Details: T7 phage fusion (kinase-tagged phage) or DNA tag for qPCR; made in house; host or cells: E. coli BL21-derived host (T7 phage) or HEK-293. The settings on record: 300 nM, read-out: % Control @ 300 nM. Here is the method:
The lysates were centrifuged and filtered to remove cell debris. […] All reactions were performed in polystyrene 96-well plates in a final volume of 0.135 ml.

Data set [1] has as its system EGFR (L747-T751del, Sins). The data set can be described thus: Kinase assays, selectivity panel (qPCR). In general terms: Quantitative PCR measures a nucleic acid by following its amplification.
The subject of a further data set is CAKI-1. The data set can be described thus: NCI screening panel (SRB). It is filed as cell-based. The settings on record: Homo sapiens, CAKI-1 (Renal), 48 h; for CC50: read-out: LC50 (the source's name).
The subject of a further data set is UO-31. The data set can be described thus: NCI screening panel (SRB). The settings on record: Homo sapiens, UO-31 (Renal), 48 h; for CC50: read-out: LC50 (the source's name). It is filed as cell-based.
The next data set has as its target SRC (Homo sapiens, UniProt P12931). The data set can be described thus: Kinase assays, selectivity panel (qPCR). To be noted: read-out: % Control @ 300 nM.
Data set [2] in a line: Plasma protein binding (equilibrium dialysis). It is filed as in vitro ADME. To be noted: pH 7.4, dialysis 6 hours. Here is the method:
Prepare a basic solution by dissolving 14.2 g/L Na2HPO4 and 8.77 g/L NaCl in deionized water. Store at 4° C. for up to 7 days. Prepare an acidic solution by dissolving 15.6 g/L NaH2PO4.2H2O and 8.77 g/L NaCl in deionized water. Store at 4° C. for up to 7 days. Titrate the basic solution with the acidic solution to pH 7.4. Store at 4° C. for up to 7 days. Check pH on the day of experiment and adjust if outside specification of 7.4±0.1.
b—Preparation of Dialysis Membranes Soak the dialysis membranes in ultrapure water for 60 minutes to separate strips, then in 20% ethanol for 20 minutes, finally in dialysis buffer for 20 minutes. c—Preparation of Plasma
Thaw the frozen plasma immediately in a 37° C. water bath.
Centrifuge plasma at 3,220 g for 10 minutes at room temperature to remove clots and collect supernatant into a fresh tube. Check and record the pH of the plasma.
Note: a) Only use plasma that has been thawed no more than twice since arrival. b) Only use plasma within the range of pH 7 to pH 8.
The working solutions of test compound and control compound ketoconazole are prepared in 50% water/50% acetonitrile and DMSO at the concentration of 200 μM, respectively. And then remove 3 μL of working solution to mix with 597 μL of human, rat and mouse plasma to achieve final concentration of 1 μM (0.5% DMSO). Vortex thoroughly.
Assemble the dialysis set up following the manufacturer's instructions. Load cells with 120 μL of plasma sample and dialyzed against equal volume of dialysis buffer (PBS). The assay is performed in duplicate. Seal the dialysis plate and place the plate in an incubator at 37° C. with 5% CO2 at approximately 100 rpm for 6 hours. At the end of dialysis, remove seal and pipette 50 μL each of post-dialysis samples from both buffer and plasma chambers into separate tubes in plate.
Add 50 μL of blank plasma to the buffer samples, and an equal volume of PBS to the collected plasma samples. Add 300 μL of room temperature quench solution (acetonitrile containing internal standards (IS, 200 nM Labetalol, 100 nM Alprazolam and 2 μM Ketoprofen)) to precipitate protein. Vortex for 5 minutes. Samples in plate are centrifuged at 3,220 g for 30 minutes at room temperature. Transfer 100 μL of the supernatant to a new plate. The supernatant may be diluted with 100 μL or 200 μL water according to the LC/MS signal response and peak shape. Mix well and analyze samples using LC/MS/MS.

[3] abbreviates: human, read-out: Human Plasma % Bound (converted).
Setting [4] is: mouse, read-out: Mouse Plasma % Bound (converted).
[5] abbreviates: rat, read-out: Rat Plasma % Bound (converted).

Where two headings read alike, the source gives them in different places.

The values that follow come from patent US20190016689A1, “NOVEL FLUORINATED QUINAZOLINE DERIVATIVES AS EGFR INHIBITORS” (TRILLIUM THERAPEUTICS INC., priority 2016, published 2019).

Chain of SRC (P12931 whole entry): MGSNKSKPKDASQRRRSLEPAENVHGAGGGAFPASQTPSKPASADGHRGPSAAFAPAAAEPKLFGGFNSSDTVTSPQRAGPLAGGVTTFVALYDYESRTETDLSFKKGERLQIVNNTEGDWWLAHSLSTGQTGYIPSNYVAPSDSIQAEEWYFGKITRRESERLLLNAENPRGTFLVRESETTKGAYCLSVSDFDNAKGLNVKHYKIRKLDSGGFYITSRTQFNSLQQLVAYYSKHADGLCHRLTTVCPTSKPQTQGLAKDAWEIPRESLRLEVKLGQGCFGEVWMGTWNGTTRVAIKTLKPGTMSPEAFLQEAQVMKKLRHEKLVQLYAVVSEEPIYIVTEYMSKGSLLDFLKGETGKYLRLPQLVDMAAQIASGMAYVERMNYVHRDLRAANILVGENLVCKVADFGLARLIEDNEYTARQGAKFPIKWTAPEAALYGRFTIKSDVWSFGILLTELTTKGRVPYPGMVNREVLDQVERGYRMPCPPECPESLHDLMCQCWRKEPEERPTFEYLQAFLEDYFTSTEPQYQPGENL

One may read the GI50 as the concentration at which growth is held to half of that of the control. Higher therefore signals lower sensitivity of the cells. On to `CN(C)C/C=C/C(=O)Nc1cc2c(Nc3ccc(F)c(Cl)c3F)ncnc2cc1OCCOC(F)F.O=C(O)/C=C\C(=O)O.O=C(O)/C=C\C(=O)O` [Example I-9-MA, (E)-N-[4-(3-chloro-2,4-difluoro-anilino)-7-[2-(difluoromethoxy)ethoxy]quinazolin-6-yl]-4-(dimethylamino)but-2-enamide di-maleic acid salt], for which the GI50 was 1.4 µM with MCF7, less than 0.01 µM with CAKI-1 and less than 0.01 µM in the data set with UO-31. Besides, the figures for the CC50 in the data set with MCF7, with CAKI-1 and in the data set with UO-31 were 57.8 µM, 3.76 µM and 14.6 µM, respectively. On EPHA6, the remaining binding at 0.3 µM was determined as 3.5%. Besides, the “% Control @ 300 nM” value in data set [1] is recorded as 8.6%. For the same molecule, the remaining activity at 0.3 µM on SRC came out at 3.5%.
Take `O=C(/C=C/CN1CCCCC1)Nc1cc2c(Nc3ccc(F)c(Cl)c3F)ncnc2cc1OCCOC(F)F.O=C(O)/C=C\C(=O)O.O=C(O)/C=C\C(=O)O` [Example I-10-MA, (E)-N-[4-(3-chloro-2,4-difluoro-anilino)-7-[2-(difluoromethoxy)ethoxy]quinazolin-6-yl]-4-(1-piperidyl)but-2-enamide di-maleic acid salt]: the GI50 was found to be 1.84 µM with MCF7, 0.0229 µM in the data set with CAKI-1 and 0.0134 µM with UO-31. In addition, the CC50 worked out at 59.8 µM in the data set on MCF7, 6.53 µM with CAKI-1 and 39.1 µM in the data set with UO-31. In addition, on EPHA6, the remaining binding at 0.3 µM came to 3.9%. Besides, the “% Control @ 300 nM” value in data set [1] amounted to 0%. For the same molecule, the remaining activity at 0.3 µM at SRC amounted to 4.8%.
Consider `CN(C)C/C=C/C(=O)Nc1cc2c(Nc3cccc(Cl)c3F)ncnc2cc1OCCOC(F)F.O=C(O)/C=C\C(=O)O` [Example I-5-MA, (E)-N-[4-(3-chloro-2-fluoro-anilino)-7-[2-(difluoromethoxy)ethoxy]quinazolin-6-yl]-4-(dimethylamino)but-2-enamide dimaleic acid salt], for which the results for the fraction unbound at 6 h, 1 μM in data set [2] (setting [3]), in data set [2] (setting [4]) and in data set [2] (setting [5]) were 0.117, 0.0975 and 0.0771, respectively.
For `CN(C)C/C=C/C(=O)Nc1cc2c(Nc3ccc(F)c(Cl)c3)ncnc2cc1O[C@H]1CCOC1` [Afatinib, reference compound], in that order: 0.08, 0.0666 and 0.0896.
